From patent US5451411A, “Methods and compositions for the oral delivery of therapeutic agents” (University of Washington, priority 1993, dated 1995)

Key:
[1] = test system: proliferating cell nuclear antigen (PCNA); test: Cell proliferation in intestinal crypts (PCNA immunohistochemistry, proliferating index); format: in vivo, Sprague-Dawley rats; conditions: TGF-β1 I.P. or P.O. in PBS
Method: Adult male Sprague-Dawley rats (250±30 g) were caged individually and handled according to the guidelines of American Association for the Accreditation of Laboratory Animal Care (AAALAC). For peroral administration of TGF-β1, the rats were anesthetized with intramuscularly injected ketamine-HCl (40 mg/kg) (Vetalar®, Aveco Inc., Fort Dodge, Iowa) and a catheter was inserted into the stomach perorally to exclude the failure of the formulation to reach stomach and intestine. Intraperitoneal injections were performed into the lower right quadrant of the abdomen. […]
Cell proliferation was quantified using immunohistochemical techniques for detecting proliferating cell nuclear antigen (PCNA), an endogenous marker of proliferating cells. […] The proliferating index (PI) was calculated as the number of epithelial cells in G1, S, G2 or M phase of the cell cycle per length (ram) of crypts counted. Four 0.25 mm areas (1 mm total) were scored for cell proliferation.

[2] = test system: mouse anti-TGF-β1 monoclonal antibody, 1D11; test: ELISA measured binding activity (immunoreactivity) of TGF-β1
Method: The ability of released TGF-β1 from both untreated and acid treated beads (as described above) to be recognized (bound) by a monoclonal antibody was assayed by ELISA as follows. An enzyme linked immunosorbent assay (ELISA) was used to quantitate the amount of immunoreactive TGF-β1 released from the untreated (PBS) and acid treated (HCl) alginate beads. The ELISA was based on the ability of a mouse anti-TGF-β1 monoclonal antibody, 1D11 (Bristol-Myers Squibb, Seattle, WA), to bind to the TGF-β1 molecule. When the 1D11 antibody was coated on 96-well immunoassay plates it captured TGF-β1 from the applied sample and standard solutions. Captured TGF-β1 was then bound by biotinylated 1D11 antibody which in turn was bound by a horseradish peroxidase/avidin D conjugate (Vector Labs cat #A-2004). A color reaction occurred by adding a chromophore/substrate solution of 3,3',5,5'-tetramethylbenzidine in CPB containing hydrogen peroxide. The reaction was stopped with the addition of 1 N sulfuric acid and the A450 was determined by a plate reader. Concentrations of the unknown samples were quantified relative to a TGF-β1 standard curve run on the same plate.
The immunoreactivity of TGF-β1 in solution in the presence of anionic amino acids, polyanions and polycations was studied using the ELISA procedure described in Example 2. To 1 mg/mL solutions of TGF-β1 in 5 mM HCl was added from 0 to 0.14%(w/v) of glutamic acid, aspartic acid, poly-L-aspartic acid (PLAA, Mw=13 kDa), sodium carboxymethyl cellulose (Na CMC, high viscosity), or polyacrylic acid (PAA, 2, 90 or 750 kDa). The reactivity of the TGF-β1 was then determined by the ELISA procedure, as described in Example 2.
Next, the ability of the additives to […] was investigated. Alginate solutions were prepared in accordance with the procedure of Example 1, incorporating 50 μg of TGF-β1, 0-0.15% (w/v) of sodium alginate and 0.1-1.0 mg (up to 0.125% w/v) of PAA (750 kDa), PLAA (13 kDa), NaCMC high viscosity or glutamic acid. The immunoreactivity of TGF-β1 was determined by ELISA as described in Example 2.
Alginate beads were prepared according to the procedure of Example 1 incorporating 50 μg TGF-β1 and 0.1-1.0 mg of additives. […] In addition, Poly-L-Lysine (PLL;123 kDa) was incorporated as a potential polycationic competitor. The additives were incorporated at an alginate:additive w/w ratio of from 75:10 to 75:1 as indicated below in Table 3.
To further assess the effect of amount of PAA incorporation on immunoreactivity of released TGF-β1, alginate beads were prepared by incubating TGF-β1 and PAA (90 kDa) for either 5 or 60 minutes (see FIG. 7) in w/w ratios of 75:1, 75:6 and 75:10, followed by dilution, addition of alginate, and bead formation in 1% CaCl2. The beads were acid treated in 0.1 N HCl at 37° C. for 30 minutes and then incubated at 37° C. in PBS, pH 7.4.

TGF-β1: TGF-β1 (1 mg/mL in 5 mM HCl) obtained from Bristol-Myers Squibb (Seattle, WA)
PCNA staining [1]: moderate staining
Effect of hydrolysis time on ELISA measured binding activity of TGF-β1 ([2]; 0.1 N HCl, 37° C., 0.25-24 hr): no significant differences
TGF-β1 released and immunoreactive (ELISA) ([2]; acid treated beads 75:10 w/w PAA 90 kDa, PBS pH 7.4): over 80%
% Binding Activity of released TGF-β1, HCl ([2]; alginate beads acid treated in 0.1 N HCl, no additive): 14%
% Binding Activity of released TGF-β1, PBS ([2]; alginate beads not acid treated (PBS), no additive): 0%
ELISA binding activity of TGF-β1 released from beads alone, in words ([2]; beads without PAA): no binding activity
Immunoreactivity of TGF-β1, in words ([2]; released from calcium-alginate beads, in presence of alginate alone, or in presence of PAA (750 kDa)): little immunoreactivity
Immunoreactivity of TGF-β1 with alginate, in words ([2]; solution, 0.015% alginate, no additive): no immunoreactivity
% Active TGF-β1, 0% alginate ([2]; solution, % Alginate (w/v) 0): 100%
% Active TGF-β1, 0.0015% alginate ([2]; solution, % Alginate (w/v) 0.0015): 65%
% Active TGF-β1, 0.015% alginate ([2]; solution, % Alginate (w/v) 0.015): 0%
% Active TGF-β1, 0.15% alginate ([2]; solution, % Alginate (w/v) 0.15): 0%
